Laboratory results published in patent publication US10913753B2, “Thienopyridine carboxamides as ubiquitin-specific protease inhibitors” (FORMA Therapeutics, Inc., priority 2016, dated 2021).

Experiments:
USP25 = USP25 (Homo sapiens (Human), UniProt Q9UHP3); assay: Ubiquitin-Rhodamine 110 Assay for USP25 Activity; format: biochemical
How it was run: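 USP25-His6 (75 pM) preincubated 30 min with compound (25 μM to 1.3 nM, 10-point 3-fold), then Ub-Rh110 added; 45 min at room temperature in pH 8.0 Tris buffer with BME, BGG, Triton X-100, stopped with 10 mM citric acid. Fluorescence 485/535 nm; % inhibition vs no-enzyme and DMSO controls, IC50 by 4-parameter logistic fit.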

USP28 = USP28 (Homo sapiens (Human), UniProt Q96RU2); assay: Ubiquitin-Rhodamine 110 Assay for USP28 Activity; format: biochemical
How it was run: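 Single-point screen at 10 μM, 90 min; follow-up dose-response (25 μM top, 3-fold) with 75 pM USP28 (1-1077)-TEV-6*His, 30 min compound preincubation, Ub-Rh110 substrate for 20 min at room temperature, citric acid stop. Buffer pH 8.0 Tris; fluorescence 485/535 nm; IC50 by 4-parameter logistic fit of % inhibition.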

USP28, sequence (Q96RU2 whole entry): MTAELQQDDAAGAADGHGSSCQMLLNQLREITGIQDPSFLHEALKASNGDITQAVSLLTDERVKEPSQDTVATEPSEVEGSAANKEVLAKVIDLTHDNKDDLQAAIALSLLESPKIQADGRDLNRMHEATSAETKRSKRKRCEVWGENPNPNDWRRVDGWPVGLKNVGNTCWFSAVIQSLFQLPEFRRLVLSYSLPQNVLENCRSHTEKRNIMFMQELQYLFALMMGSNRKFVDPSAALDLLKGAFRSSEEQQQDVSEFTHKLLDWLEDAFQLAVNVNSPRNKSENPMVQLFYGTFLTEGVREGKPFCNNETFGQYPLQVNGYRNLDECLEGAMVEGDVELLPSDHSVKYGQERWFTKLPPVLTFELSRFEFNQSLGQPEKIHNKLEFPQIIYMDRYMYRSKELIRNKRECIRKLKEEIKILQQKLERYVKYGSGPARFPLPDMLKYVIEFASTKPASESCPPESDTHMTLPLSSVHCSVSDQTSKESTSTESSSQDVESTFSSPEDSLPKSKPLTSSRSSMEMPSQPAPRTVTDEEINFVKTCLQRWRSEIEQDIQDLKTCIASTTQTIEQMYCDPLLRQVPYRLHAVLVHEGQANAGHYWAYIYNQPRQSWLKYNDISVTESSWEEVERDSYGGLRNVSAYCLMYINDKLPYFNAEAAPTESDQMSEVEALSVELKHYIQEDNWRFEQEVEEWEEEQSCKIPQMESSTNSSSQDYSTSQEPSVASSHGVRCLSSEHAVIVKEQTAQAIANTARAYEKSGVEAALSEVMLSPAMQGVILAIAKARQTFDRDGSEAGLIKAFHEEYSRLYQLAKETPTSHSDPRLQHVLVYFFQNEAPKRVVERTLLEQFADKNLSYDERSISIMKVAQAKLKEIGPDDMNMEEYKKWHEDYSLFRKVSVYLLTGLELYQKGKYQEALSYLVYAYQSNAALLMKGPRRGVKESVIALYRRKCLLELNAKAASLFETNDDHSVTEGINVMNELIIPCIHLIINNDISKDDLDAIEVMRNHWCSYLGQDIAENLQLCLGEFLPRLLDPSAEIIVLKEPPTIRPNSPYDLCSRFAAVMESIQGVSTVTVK
USP25, sequence (Q9UHP3 whole entry): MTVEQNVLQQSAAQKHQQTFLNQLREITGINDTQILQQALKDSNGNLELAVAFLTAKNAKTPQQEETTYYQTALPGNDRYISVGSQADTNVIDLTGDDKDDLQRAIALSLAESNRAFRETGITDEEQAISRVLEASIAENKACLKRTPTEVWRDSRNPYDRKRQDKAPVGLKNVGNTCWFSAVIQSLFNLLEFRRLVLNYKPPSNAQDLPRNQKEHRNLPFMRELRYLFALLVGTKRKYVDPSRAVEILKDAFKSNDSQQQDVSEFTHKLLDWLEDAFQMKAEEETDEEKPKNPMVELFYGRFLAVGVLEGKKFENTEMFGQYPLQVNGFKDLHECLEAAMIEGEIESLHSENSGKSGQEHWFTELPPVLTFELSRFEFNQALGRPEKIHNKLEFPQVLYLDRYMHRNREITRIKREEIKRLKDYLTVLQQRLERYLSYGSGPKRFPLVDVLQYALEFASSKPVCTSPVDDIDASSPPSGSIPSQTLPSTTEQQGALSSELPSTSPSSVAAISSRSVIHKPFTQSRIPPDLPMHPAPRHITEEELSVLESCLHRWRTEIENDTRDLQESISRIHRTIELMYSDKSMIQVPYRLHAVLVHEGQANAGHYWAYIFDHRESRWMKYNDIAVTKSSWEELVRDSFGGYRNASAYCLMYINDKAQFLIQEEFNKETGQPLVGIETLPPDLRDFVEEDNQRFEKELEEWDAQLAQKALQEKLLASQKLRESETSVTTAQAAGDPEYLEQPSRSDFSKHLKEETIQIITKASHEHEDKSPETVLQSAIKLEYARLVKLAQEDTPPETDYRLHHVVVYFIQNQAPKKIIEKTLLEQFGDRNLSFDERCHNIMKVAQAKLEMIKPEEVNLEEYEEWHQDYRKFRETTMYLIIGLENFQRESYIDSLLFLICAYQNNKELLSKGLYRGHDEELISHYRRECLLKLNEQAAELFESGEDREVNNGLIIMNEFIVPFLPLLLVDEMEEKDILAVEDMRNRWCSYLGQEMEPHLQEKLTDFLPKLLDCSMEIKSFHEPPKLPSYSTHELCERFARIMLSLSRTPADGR

SMILES: Cc1ccc2c(N)c(C(=O)NCCc3ccc(N4CCNCC4)cc3C3CC3)sc2n1 [Example I-81]
- IC50 (USP25): < 0.2 µM
- IC50 (USP28): < 0.2 µM

SMILES: Cc1ccc2c(N)c(C(=O)NCCc3ccc(N4CCNCC4)c(-c4cnn(C5CCOCC5)c4)c3)sc2n1 [Example I-166]
- IC50 (USP25): 10 to 25 µM
- IC50 (USP28): 2 to 10 µM

SMILES: CCOc1ccc2c(N)c(C(=O)NCCc3ccc(N4CCNCC4)cc3)sc2n1 [Example I-191]
- IC50 (USP25): 2 to 10 µM
- IC50 (USP28): 0.2 to 2 µM

SMILES: CN1CCN(c2ccc(CCNC(=O)c3sc4nc(Cl)ccc4c3N)cc2)CC1 [Compound I-59]
- IC50 (USP25): 0.2 to 2 µM
- IC50 (USP28): 0.2 to 2 µM

SMILES: COCCN1CCN(c2ccc(CCNC(=O)c3sc4nc(C)ccc4c3N)cc2)CC1 [Compound I-26]
- IC50 (USP25): 2 to 10 µM
- IC50 (USP28): 0.2 to 2 µM

SMILES: Cc1ccc2c(N)c(C(=O)NC[C@H](C)c3ccc(N4CC5CCC(C4)N5)cc3F)sc2n1 (single isomer, unassigned) [Example I-104]
- IC50 (USP25): 0.2 to 2 µM
- IC50 (USP28): 0.2 to 2 µM

SMILES: C[C@H](CNC(=O)c1sc2ncc(F)cc2c1N)c1cc(F)c(N2CC3CCC(C2)N3)cc1F (single isomer, unassigned) [Example I-101]
- IC50 (USP25): 2 to 10 µM
- IC50 (USP28): 2 to 10 µM

SMILES: Cc1ccc2c(N)c(C(=O)NCCc3cccc(CC(=O)O)c3)sc2n1 [Example I-178]
- IC50 (USP25): 2 to 10 µM
- IC50 (USP28): 2 to 10 µM

SMILES: Cc1ccc2c(N)c(C(=O)NCCc3ccc(N4CC5CCC(C4)N5)c(C#N)c3)sc2n1 [Compound I-54]
- IC50 (USP25): 0.2 to 2 µM
- IC50 (USP28): < 0.2 µM

SMILES: Cc1ccc2c(N)c(C(=O)NCCc3ccc(N4CC[C@H]5NCC[C@H]54)cc3)sc2n1 (single isomer, unassigned) [Example I-94]
- IC50 (USP25): 0.2 to 2 µM
- IC50 (USP28): 0.2 to 2 µM

SMILES: COc1cc(N2CCNCC2)ccc1CCNC(=O)c1sc2nc(C)ccc2c1N [Compound I-2]
- IC50 (USP25): < 0.2 µM
- IC50 (USP28): < 0.2 µM

SMILES: Cc1ccc2c(N)c(C(=O)NC[C@H](C)c3cc(F)c(N4CC5CCC(C4)N5)cc3F)sc2n1 (single isomer, unassigned) [Example I-98]
- IC50 (USP25): 0.2 to 2 µM
- IC50 (USP28): < 0.2 µM

SMILES: Cc1ccc2c(N)c(C(=O)NCCc3ccc(N4CCNCC4)cc3F)sc2n1 [Compound I-5]
- IC50 (USP25): 0.2 to 2 µM
- IC50 (USP28): 0.2 to 2 µM

SMILES: Cc1ccc2c(N)c(C(=O)NCCc3ccc(N4C5CNCC4C5)cc3)sc2n1 [Compound I-64]
- IC50 (USP25): < 0.2 µM
- IC50 (USP28): < 0.2 µM

SMILES: Cc1ccc2c(N)c(C(=O)NCCc3ccc(C4CCNCC4)c(F)c3)sc2n1 [Example I-169, 3-Amino-N-(3-fluoro-4-(piperidin-4-yl)phenethyl)-6-methylthieno[2,3-b]pyridine-2-carboxamide]
- IC50 (USP25): 0.2 to 2 µM
- IC50 (USP28): < 0.2 µM

SMILES: CCN[C@@H]1CCN(c2ccc(CCNC(=O)c3sc4nc(C)ccc4c3N)cc2)C1 [Example I-200, (R)-3-amino-N-(4-(3-(ethylamino)pyrrolidin-1-yl)phenethyl)-6-methylthieno[2,3-b]pyridine-2-carboxamide]
- IC50 (USP25): 0.2 to 2 µM
- IC50 (USP28): 0.2 to 2 µM

SMILES: CCc1ccc2c(N)c(C(=O)NCCc3cc(F)c(N4CCNCC4)cc3F)sc2n1 [Compound I-48]
- IC50 (USP25): < 0.2 µM
- IC50 (USP28): < 0.2 µM

SMILES: Cc1ccc2c(N)c(C(=O)NC[C@@H](C)c3cc(F)c(N4CC5CCC(C4)N5)cc3F)sc2n1 (single isomer, unassigned) [Example I-97]
- IC50 (USP25): 2 to 10 µM
- IC50 (USP28): 0.2 to 2 µM

SMILES: Cc1ccc2c(N)c(C(=O)NCCc3ccc4c(c3)C[C@@H](C(=O)O)C4)sc2n1 [Example I-177]
- IC50 (USP25): 0.2 to 2 µM
- IC50 (USP28): 0.2 to 2 µM

SMILES: Cc1ccc2c(N)c(C(=O)NCCc3ccc(N4CCNCC4)c(-c4ccccn4)c3)sc2n1 [Example I-168, 3-Amino-6-methyl-N-(4-(piperazin-1-yl)-3-(pyridin-2-yl)phenethyl)thieno[2,3-b]pyridine-2-carboxamide]
- IC50 (USP25): 10 to 25 µM
- IC50 (USP28): 2 to 10 µM

SMILES: Cc1ccc2c(N)c(C(=O)NCCc3ccc(N4CCC5(CCCNC5)C4)cc3)sc2n1 (single isomer, unassigned) [Example I-216]
- IC50 (USP25): 0.2 to 2 µM
- IC50 (USP28): 0.2 to 2 µM

SMILES: Cc1ccc2c(N)c(C(=O)NCCc3cc(F)c(NC4CNC4)cc3F)sc2n1 [Compound I-70]
- IC50 (USP25): 0.2 to 2 µM
- IC50 (USP28): < 0.2 µM

SMILES: Cc1cc(C(F)F)nc2sc(C(=O)NCCc3ccc(N4CCNCC4)cc3)c(N)c12 [Compound I-62]
- IC50 (USP25): < 0.2 µM
- IC50 (USP28): < 0.2 µM

SMILES: CCc1nc2sc(C(=O)NCCc3ccc(N4CCNCC4)cc3)c(N)c2cc1F [Compound I-206]
- IC50 (USP25): < 0.2 µM
- IC50 (USP28): < 0.2 µM

SMILES: Nc1c(C(=O)NCCc2ccc(N3CCNCC3)cc2)sc2nc3c(cc12)CCCC3 [Compound I-30]
- IC50 (USP25): 10 to 25 µM
- IC50 (USP28): 2 to 10 µM

SMILES: CN[C@H]1CN(c2cc(F)c(CCNC(=O)c3sc4nc(C)ccc4c3N)cc2F)C[C@H]1F (single isomer, unassigned) [Example I-212]
- IC50 (USP25): 0.2 to 2 µM
- IC50 (USP28): 0.2 to 2 µM

SMILES: Cc1ccc2c(N)c(C(=O)NCCc3cc(F)c(N4CC5CCC(C4)N5)cc3F)sc2n1 [Compound I-34]
- IC50 (USP25): 0.2 to 2 µM
- IC50 (USP28): < 0.2 µM

SMILES: Cc1cc(C(F)(F)F)c2c(N)c(C(=O)NCCc3ccc(N4CCNCC4)cc3)sc2n1 [Compound I-204]
- IC50 (USP25): < 0.2 µM
- IC50 (USP28): 0.2 to 2 µM

SMILES: Nc1c(C(=O)NCCc2ccc(N3CCNCC3)cc2)sc2nc(CO)ccc12 [Compound I-43]
- IC50 (USP25): 2 to 10 µM
- IC50 (USP28): 0.2 to 2 µM

SMILES: CNc1ccc2c(N)c(C(=O)NCCc3ccc(N4CCN(C)CC4)cc3)sc2n1 [Example I-195]
- IC50 (USP25): 0.2 to 2 µM
- IC50 (USP28): < 0.2 µM

SMILES: Cc1ccc2c(N)c(C(=O)NCCc3ccc(N4CCN[C@H](CO)C4)cc3)sc2n1 [Example I-86]
- IC50 (USP25): 0.2 to 2 µM
- IC50 (USP28): 0.2 to 2 µM

SMILES: CN[C@H]1CCN(c2ccc(CCNC(=O)c3sc4nc(C)ccc4c3N)cc2Cl)C1 [Example I-79]
- IC50 (USP25): 0.2 to 2 µM
- IC50 (USP28): 0.2 to 2 µM

SMILES: Cc1nc2sc(C(=O)NCCc3ccc(N4CCNCC4)cc3)c(N)c2cc1F [Compound I-63]
- IC50 (USP25): 0.2 to 2 µM
- IC50 (USP28): < 0.2 µM

SMILES: Cc1ccc2c(N)c(C(=O)NCCc3ccc(N4CCNCC4)c(F)c3F)sc2n1 [Example I-84]
- IC50 (USP25): 0.2 to 2 µM
- IC50 (USP28): 0.2 to 2 µM

SMILES: Cc1ccc2c(N)c(C(=O)NC[C@@H](C)c3ccc(N4CC5CCC(C4)N5)c(C#N)c3)sc2n1 (single isomer, unassigned) [Example I-109]
- IC50 (USP25): 2 to 10 µM
- IC50 (USP28): 0.2 to 2 µM

SMILES: CC(C)Nc1ccc2c(N)c(C(=O)NCCc3ccc(N4CCNCC4)cc3)sc2n1 [Example I-189]
- IC50 (USP25): 2 to 10 µM
- IC50 (USP28): 0.2 to 2 µM

SMILES: Cc1ccc2c(N)c(C(=O)NC[C@@H](C)c3ccc(N4CC5CCC(C4)N5)c(F)c3)sc2n1 (single isomer, unassigned) [Example I-105]
- IC50 (USP25): 0.2 to 2 µM
- IC50 (USP28): 0.2 to 2 µM

SMILES: Nc1c(C(=O)NCCc2ccc(N3CCNCC3)cc2)sc2nc3c(cc12)CCC3 [Compound I-29]
- IC50 (USP25): 2 to 10 µM
- IC50 (USP28): 2 to 10 µM

SMILES: Cc1cc(N)nc2sc(C(=O)NCCc3ccc(N4CCNCC4)c(Cl)c3)c(N)c12 [Compound I-17]
- IC50 (USP25): 2 to 10 µM
- IC50 (USP28): 0.2 to 2 µM

SMILES: Cc1ccc2c(N)c(C(=O)NCCc3ccc(N4CCNCC4)cc3-c3ccccc3)sc2n1 [Example I-82]
- IC50 (USP25): < 0.2 µM
- IC50 (USP28): < 0.2 µM

SMILES: Cc1ccc2c(N)c(C(=O)NCCc3ccc(-c4cnn5c4CNCC5)cc3)sc2n1 [Compound I-12]
- IC50 (USP25): 0.2 to 2 µM
- IC50 (USP28): < 0.2 µM

SMILES: N#Cc1ccc2c(N)c(C(=O)NCCc3cc(F)c(N4CCNCC4)cc3F)sc2n1 [Example I-220, 3-Amino-6-cyano-N-(2,5-difluoro-4-(piperazin-1-yl)phenethyl)thieno[2,3-b]pyridine-2-carboxamide]
- IC50 (USP25): 2 to 10 µM
- IC50 (USP28): 2 to 10 µM
